The source of these data is patent US20170202808A1, “PHARMACEUTICAL DOSAGE FORMS” (Novartis AG, priority 2014, published 2017).

Each structure is given as a SMILES string.

For data set [1] the following is noted: especially in its phosphate salt form.
For data set [2] the following is noted: especially in its phosphate salt form. This is another data set of the same source.
The conditions of data set [3]: drug substance without excipients.
For data set [4] the following is noted: drug substance without MCC.

With `N#Cc1ccc([C@H]2CCc3cncn32)c(F)c1` [compound of formula (1), 4-[(5R)-6,7-dihydro-5H-pyrrolo[1,2-c]imidazol-5-yl]-3-fluorobenzonitrile], in data set [1], the hygroscopicity entry is listed as “hygroscopic”. Moreover, in data set [2], the “drug substance bulk density” value fell in the range of 0.1 to 0.3 g/mL. Also, in data set [3], the “flowability, ffc (poorly flowable)” value is 1.1. In addition, in data set [4], the primary particle size result is “ca. 4 micron”.
